The values that follow come from patent publication US20150225404A1, “PYRIDINE DERIVATIVE AND MEDICINE” (NIPPON SHINYAKU CO., LTD., priority 2012, published 2015).

Structures can show the parent of a compound that is named as a salt.

The target in this assay is T1, human mGluR5 (Homo sapiens, UniProt P41594).
T1 construct: expressed in transfected cells
T1 sequence (P41594 21-1212): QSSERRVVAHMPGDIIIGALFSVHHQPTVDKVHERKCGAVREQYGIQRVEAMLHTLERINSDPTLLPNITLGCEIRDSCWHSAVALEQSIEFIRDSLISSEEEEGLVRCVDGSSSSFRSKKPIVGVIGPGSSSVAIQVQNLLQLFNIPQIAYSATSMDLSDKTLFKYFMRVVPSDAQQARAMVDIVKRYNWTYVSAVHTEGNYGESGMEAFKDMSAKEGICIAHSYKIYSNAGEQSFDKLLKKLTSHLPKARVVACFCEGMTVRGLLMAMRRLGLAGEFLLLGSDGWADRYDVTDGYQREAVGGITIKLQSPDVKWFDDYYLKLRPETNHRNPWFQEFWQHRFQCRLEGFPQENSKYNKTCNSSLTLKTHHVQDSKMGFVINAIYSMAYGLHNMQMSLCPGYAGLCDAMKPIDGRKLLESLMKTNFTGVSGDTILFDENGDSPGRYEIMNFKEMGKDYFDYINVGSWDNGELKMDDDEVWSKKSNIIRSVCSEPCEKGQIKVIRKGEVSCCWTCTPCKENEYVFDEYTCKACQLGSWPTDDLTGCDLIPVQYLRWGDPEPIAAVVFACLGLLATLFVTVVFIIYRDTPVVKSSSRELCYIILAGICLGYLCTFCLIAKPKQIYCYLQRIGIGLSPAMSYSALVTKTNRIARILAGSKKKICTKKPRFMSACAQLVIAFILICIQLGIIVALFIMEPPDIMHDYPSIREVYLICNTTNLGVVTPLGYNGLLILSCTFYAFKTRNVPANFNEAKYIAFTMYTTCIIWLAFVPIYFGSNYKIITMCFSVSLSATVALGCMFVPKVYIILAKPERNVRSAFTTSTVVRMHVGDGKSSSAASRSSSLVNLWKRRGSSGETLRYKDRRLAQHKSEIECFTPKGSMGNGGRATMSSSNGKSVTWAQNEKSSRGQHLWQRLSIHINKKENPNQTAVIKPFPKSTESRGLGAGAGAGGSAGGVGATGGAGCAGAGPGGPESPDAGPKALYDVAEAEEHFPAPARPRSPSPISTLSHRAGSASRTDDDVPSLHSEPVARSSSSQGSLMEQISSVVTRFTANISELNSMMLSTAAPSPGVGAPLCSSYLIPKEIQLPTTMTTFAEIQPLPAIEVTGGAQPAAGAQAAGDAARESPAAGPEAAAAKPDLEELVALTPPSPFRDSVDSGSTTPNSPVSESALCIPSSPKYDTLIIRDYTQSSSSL
The experiment in a line: Experiment for receptor function of mGluR5 (Ca2+-dependent fluorescence, FLIPR, CHO-K1 cells stably expressing human mGluR5). The assay is classed as cell-based. The conditions noted are these: L-glutamic acid 10 μM, Fluo-4 fluorescence. The protocol:
Stable expression cells in which the human mGluR5 gene had been introduced into a Chinese hamster ovary cell (CHO-K1) were used for evaluation. The cells were suspended in a growth medium (MEM-α (D8042, available from Sigma) containing 10% inactivated FBS (Cat. No. 171012, available from CCB) and 2 mM glutamax (Cat. No. 35050, available from GIBCO)) and seeded on a black clear-bottom 96-well plate at 100,000 cells per well. One day after seeding, the medium was replaced by a medium (Hanks' balanced salt solution (HBSS buffer solution) (20 mM HEPES, 2.5 mM probencide (165-15472, available from Wako Pure Chemical Industries, Ltd.), and 10×HBSS (14065-056, available from Gibco) diluted 10 times, pH 7.4)) containing a calcium-sensitive dye Fluo-4 AM at a final concentration of […] (F312, available from Dojindo Laboratories) and Pluronic F-127 at a final concentration of 0.0145% (P-2443, available from Sigma), followed by incubation at 37° C. for one hour, thereby loading Fluo-4 AM into the cells.
Subsequently, the cells were washed twice with an HBSS buffer solution, to which was subsequently added the same buffer solution. Twenty minutes thereafter, the plate was transferred into a fluorescence screening system (FLIPR TETRA, available from Molecular Devices, LLC) and measured for a Ca^2+-dependent fluorescence change in the cells.
First of all, a fluorescence baseline was measured, and thereafter, fluorescence measurement was performed for 2 minutes while adding a test substance, an excessive amount of 6-methyl-2-(phenylethynyl)pyridine (hereinafter referred to as “MPEP”) (final concentration: 10 μM), or the medium. Thereafter, fluorescence measurement was carried out for one minute while adding L-glutamic acid (final concentration: 10 μM).
While taking a fluorescence intensity caused by L-glutamic acid as 100% and a fluorescence intensity caused by L-glutamic acid in the presence of MPEP as 0%, respectively, function inhibitory activity against human mGluR5 was evaluated from the fluorescence intensity caused by L-glutamic acid in the presence of the test substance at each concentration, and an IC50 value was estimated according to a logistic equation (SAS System).
For the compound `c1ccc(COc2cc(-c3cccnc3)c3c(n2)CCC3)nc1` [Example 1, 4-(Pyridin-3-yl)-2-(pyridin-2-ylmethoxy)-6,7-dihydro-5H-cyclopenta[b]pyridine dihydrochloride], inhibition was half-maximal at 144 nM (IC50).
Take `N#Cc1ccc(-c2cc(OCc3ccccn3)nc3c2CCC3)cn1` [Example 4, 5-[2-(Pyridin-2-ylmethoxy)-6,7-dihydro-5H-cyclopenta[b]pyridin-4-yl]pyridine-2-carbonitrile hydrochloride]: the IC50 – broadly, the concentration at which inhibition is half-maximal – turned out to be 147 nM.
Regarding `Fc1ccc(COc2cc(-c3cncnc3)c3c(n2)CCC3)c(F)c1` [Example 18, 2-[(2,4-Difluorobenzyl)oxy]-4-(pyrimidin-5-yl)-6,7-dihydro-5H-cyclopenta[b]pyridine], the IC50 was determined as 105 nM.
Turning to `Fc1cccc(COc2cc(-c3cncnc3)c3c(n2)CCC3)n1` [Example 24, 2-[(6-Fluoropyridin-2-yl)methoxy]-4-(pyrimidin-5-yl)-6,7-dihydro-5H-cyclopenta[b]pyridine], the half-maximal inhibitory concentration (IC50) was found to be 36 nM.
The same measure for `Fc1ccc(COc2cc(-c3cncnc3)c3c(n2)CCC3)nc1` [Example 25, 2-[(5-Fluoropyridin-2-yl)methoxy]-4-(pyrimidin-5-yl)-6,7-dihydro-5H-cyclopenta[b]pyridine]: 60.6 nM.
In the case of `Cc1cccc(COc2cc(-c3cncnc3)c3c(n2)CCC3)n1` [Example 28, 2-[(6-Methylpyridin-2-yl)methoxy]-4-(pyrimidin-5-yl)-6,7-dihydro-5H-cyclopenta[b]pyridine] it was 104 nM; in that of `Fc1cnccc1COc1cc(-c2cncnc2)c2c(n1)CCC2` [Example 32, 2-[(3-Fluoropyridin-4-yl)methoxy]-4-(pyrimidin-5-yl)-6,7-dihydro-5H-cyclopenta[b]pyridine], 31 nM; in that of `c1csc(COc2cc(-c3cncnc3)c3c(n2)CCC3)c1` [Example 34, 4-(Pyrimidin-5-yl)-2-(thiophen-2-ylmethoxy)-6,7-dihydro-5H-cyclopenta[b]pyridine], 15 nM.
In turn, `Clc1ccc(COc2cc(-c3cncnc3)c3c(n2)CCC3)s1` [Example 35, 2-[(5-Chlorothiophen-2-yl)methoxy]-4-(pyrimidin-5-yl)-6,7-dihydro-5H-cyclopenta[b]pyridine] showed an IC50 of 58 nM.
The same measure for `N#Cc1ncc(-c2cc(OCc3ccccn3)nc3c2CCC3)cn1` [Example 37, 5-[2-(Pyridin-2-ylmethoxy)-6,7-dihydro-5H-cyclopenta[b]pyridin-4-yl]pyrimidine-2-carbonitrile hydrochloride]: 79 nM; for `Cc1ncc(-c2cc(OCc3ccccc3)nc3c2CCC3)cn1` [Example 38, 2-(Benzyloxy)-4-(2-methylpyrimidin-5-yl)-6,7-dihydro-5H-cyclopenta[b]pyridine]: 45 nM; for `Cc1ncc(-c2cc(OCc3cccc(F)n3)nc3c2CCC3)cn1` [Example 39, 2-[(6-Fluoropyridin-2-yl)methoxy]-4-(2-methylpyrimidin-5-yl)-6,7-dihydro-5H-cyclopenta[b]pyridine]: 122 nM.
In the case of `Cc1ncc(-c2cc(OCc3ccc(F)cn3)nc3c2CCC3)cn1` [Example 40, 2-[(5-Fluoropyridin-2-yl)methoxy]-4-(2-methylpyrimidin-5-yl)-6,7-dihydro-5H-cyclopenta[b]pyridine hydrochloride] it was 78 nM; in that of `Cc1ncc(-c2cc(OCc3ncccc3F)nc3c2CCC3)cn1` [Example 41, 2-[(3-Fluoropyridin-2-yl)methoxy]-4-(2-methylpyrimidin-5-yl)-6,7-dihydro-5H-cyclopenta[b]pyridine], 30 nM; in that of `N#Cc1ncc(-c2cc(OCc3ncc(F)cc3F)nc3c2CCC3)cn1` [Example 44, 5-{2-[(3,5-Difluoropyridin-2-yl)methoxy]-6,7-dihydro-5H-cyclopenta[b]pyridin-4-yl}pyrimidine-2-carbonitrile], 166 nM.
`N#Cc1ncc(-c2cc(OCc3cccc(F)n3)nc3c2CCC3)cn1` [Example 48, 5-{2-[(6-Fluoropyridin-2-yl)methoxy]-6,7-dihydro-5H-cyclopenta[b]pyridin-4-yl}pyrimidine-2-carbonitrile] had an IC50 of 72 nM.
As to `N#Cc1ncc(-c2cc(OCc3ccc(F)cn3)nc3c2CCC3)cn1` [Example 49, 5-{2-[(5-Fluoropyridin-2-yl)methoxy]-6,7-dihydro-5H-cyclopenta[b]pyridin-4-yl}pyrimidine-2-carbonitrile], the midpoint of inhibition, the IC50, lay at 55 nM.
The same measure for `N#Cc1ncc(-c2cc(OCc3ncccc3F)nc3c2CCC3)cn1` [Example 50, 5-{2-[(3-Fluoropyridin-2-yl)methoxy]-6,7-dihydro-5H-cyclopenta[b]pyridin-4-yl}pyrimidine-2-carbonitrile]: 176 nM; for `c1ccc(COc2cc(-c3cnccn3)c3c(n2)CCC3)nc1` [Example 53, 4-(Pyrazin-2-yl)-2-(pyridin-2-ylmethoxy)-6,7-dihydro-5H-cyclopenta[b]pyridine hydrochloride]: 11.4 nM; for `N#Cc1cncc(-c2cc(OCc3ccccn3)nc3c2CCC3)n1` [Example 54, 6-[2-(Pyridin-2-ylmethoxy)-6,7-dihydro-5H-cyclopenta[b]pyridin-4-yl]pyrazine-2-carbonitrile hydrochloride]: 20 nM.
In the case of `CC(C)(O)c1cncc(-c2cc(OCc3ccccn3)nc3c2CCC3)n1` [Example 55, 2-{6-[2-(Pyridin-2-ylmethoxy)-6,7-dihydro-5H-cyclopenta[b]pyridin-4-yl]pyrazin-2-yl}propan-2-ol], the half-inhibitory concentration (IC50) was determined as 348 nM.
In the case of `N#Cc1cccc(COc2cc(-c3cncc(CO)n3)c3c(n2)CCC3)n1` [Example 56, 6-[({4-[6-(Hydroxymethyl)pyrazin-2-yl]-6,7-dihydro-5H-cyclopenta[b]pyridin-2-yl}oxy)methyl]pyridine-2-carbonitrile] it was 495 nM; in that of `Fc1cccc(-c2cc(OCc3ccccn3)nc3c2CCC3)c1` [Example 58, 4-(3-Fluorophenyl)-2-(pyridin-2-ylmethoxy)-6,7-dihydro-5H-cyclopenta[b]pyridine], 55.6 nM.
In the case of `O=[N+]([O-])c1cccc(-c2cc(OCc3ccccn3)nc3c2CCC3)c1` [Example 63, 4-(3-Nitrophenyl)-2-(pyridin-2-ylmethoxy)-6,7-dihydro-5H-cyclopenta[b]pyridine] it was 59.9 nM.
`Cc1ccc(-c2cc(OCc3ccccn3)nc3c2CCC3)cc1F` [Example 64, 4-(3-Fluoro-4-methylphenyl)-2-(pyridin-2-ylmethoxy)-6,7-dihydro-5H-cyclopenta[b]pyridine] yielded an IC50 of 297 nM.
The same measure for `N#Cc1ccc(-c2cc(OCc3ccccn3)nc3c2CCC3)cc1F` [Example 66, 2-Fluoro-4-[2-(pyridin-2-ylmethoxy)-6,7-dihydro-5H-cyclopenta[b]pyridin-4-yl]benzonitrile]: 108 nM; for `Oc1cc(F)cc(-c2cc(OCc3ccccn3)nc3c2CCC3)c1` [Example 68, 3-Fluoro-5-[2-(pyridin-2-ylmethoxy)-6,7-dihydro-5H-cyclopenta[b]pyridin-4-yl]phenol]: 92 nM; for `CS(=O)(=O)Oc1cc(F)cc(-c2cc(OCc3ccccn3)nc3c2CCC3)c1` [Example 69, 3-Fluoro-5-[2-(pyridin-2-ylmethoxy)-6,7-dihydro-5H-cyclopenta[b]pyridin-4-yl]phenyl methanesulfonate]: 94 nM.
In the case of `Fc1cc(-c2cc(OCc3ccccn3)nc3c2CCC3)ccn1` [Example 73, 4-(2-Fluoropyridin-4-yl)-2-(pyridin-2-ylmethoxy)-6,7-dihydro-5H-cyclopenta[b]pyridine] it was 16.2 nM; in that of `Cc1cccc(COc2cc(-c3cccnc3)c3c(n2)CCCC3)n1` [Example 83, 2-[(6-Methylpyridin-2-yl)methoxy]-4-(pyridin-3-yl)-5,6,7,8-tetrahydroquinoline], 16.2 nM.
`Cc1ccc(COc2cc(-c3cccnc3)c3c(n2)CCCC3)nc1` [Example 84, 2-[(5-Methylpyridin-2-yl)methoxy]-4-(pyridin-3-yl)-5,6,7,8-tetrahydroquinoline] came in with a half-inhibitory concentration (IC50) of 112 nM.
In the case of `Cc1ccnc(COc2cc(-c3cccnc3)c3c(n2)CCCC3)c1` [Example 85, 2-[(4-Methylpyridin-2-yl)methoxy]-4-(pyridin-3-yl)-5,6,7,8-tetrahydroquinoline] it was 178 nM; in that of `Fc1cccc(COc2cc(-c3cccnc3)c3c(n2)CCCC3)n1` [Example 86, 2-[(6-Fluoropyridin-2-yl)methoxy]-4-(pyridin-3-yl)-5,6,7,8-tetrahydroquinoline], 15.1 nM; in that of `COCc1cccc(COc2cc(-c3cccnc3)c3c(n2)CCCC3)n1` [Example 89, 2-{[6-(Methoxymethyl)pyridin-2-yl]methoxy}-4-(pyridin-3-yl)-5,6,7,8-tetrahydroquinoline], 41.4 nM.
